# Reference: ChEMBL document CHEMBL3046007, “Isonicotinic acid hydrazide derivatives: synthesis, antimicrobial activity, and QSAR studies” (Med Chem Res, 2012)
# System: Aspergillus niger
# Experiment: Antimicrobial activity against Aspergillus niger after 7 days by serial dilution method
# Format: functional
# Settings: not given
row,Structure (SMILES),-logMIC
1,CSc1ccc(/C=N/N(C(=O)c2ccccc2)C(=O)c2ccncc2)cc1,2.48
2,O=C(N/N=C/c1c(O)ccc2ccccc12)c1ccncc1,2.37
3,C/C=C/C=N/NC(=O)c1ccncc1,2.18
4,OC(Cn1cncn1)(Cn1cncn1)c1ccc(F)cc1F [FLUCONAZOLE],2.64
5,NNC(=O)c1ccncc1 [ISONIAZID],2.04
6,O=C(N/N=C/c1ccccc1O)c1ccncc1 [SALINAZID],2.29

# System: Candida albicans
# Experiment: Antimicrobial activity against Candida albicans after 48 hr by serial dilution method
# Format: functional
# Settings: not given
row,Structure (SMILES),-logMIC
1,CSc1ccc(/C=N/N(C(=O)c2ccccc2)C(=O)c2ccncc2)cc1,2.78
2,O=C(N/N=C/c1c(O)ccc2ccccc12)c1ccncc1,2.37
3,C/C=C/C=N/NC(=O)c1ccncc1,2.48
4,OC(Cn1cncn1)(Cn1cncn1)c1ccc(F)cc1F [FLUCONAZOLE],2.64
5,NNC(=O)c1ccncc1 [ISONIAZID],2.34
6,O=C(N/N=C/c1ccccc1O)c1ccncc1 [SALINAZID],2.29

# System: Escherichia coli
# Experiment: Antimicrobial activity against Escherichia coli after 24 hr by serial dilution method
# Format: functional
# Settings: not given
row,Structure (SMILES),-logMIC
1,CSc1ccc(/C=N/N(C(=O)c2ccccc2)C(=O)c2ccncc2)cc1,2.48
2,O=C(N/N=C/c1c(O)ccc2ccccc12)c1ccncc1,2.07
3,C/C=C/C=N/NC(=O)c1ccncc1,1.88
4,NNC(=O)c1ccncc1 [ISONIAZID],1.74
5,CCn1cc(C(=O)O)c(=O)c2cc(F)c(N3CCNCC3)cc21 [NORFLOXACIN],2.61
6,O=C(N/N=C/c1ccccc1O)c1ccncc1 [SALINAZID],2.29

# System: Staphylococcus aureus
# Experiment: Antimicrobial activity against Staphylococcus aureus after 24 hr by serial dilution method
# Format: functional
# Settings: not given
row,Structure (SMILES),-logMIC
1,CSc1ccc(/C=N/N(C(=O)c2ccccc2)C(=O)c2ccncc2)cc1,2.18
2,O=C(N/N=C/c1c(O)ccc2ccccc12)c1ccncc1,2.07
3,C/C=C/C=N/NC(=O)c1ccncc1,1.88
4,NNC(=O)c1ccncc1 [ISONIAZID],2.04
5,CCn1cc(C(=O)O)c(=O)c2cc(F)c(N3CCNCC3)cc21 [NORFLOXACIN],2.61
6,O=C(N/N=C/c1ccccc1O)c1ccncc1 [SALINAZID],1.98

# System: Bacillus subtilis
# Experiment: Antimicrobial activity against Bacillus subtilis after 24 hr by serial dilution method
# Format: functional
# Settings: not given
row,Structure (SMILES),-logMIC
1,CSc1ccc(/C=N/N(C(=O)c2ccccc2)C(=O)c2ccncc2)cc1,2.18
2,O=C(N/N=C/c1c(O)ccc2ccccc12)c1ccncc1,2.07
3,C/C=C/C=N/NC(=O)c1ccncc1,1.88
4,NNC(=O)c1ccncc1 [ISONIAZID],1.74
5,CCn1cc(C(=O)O)c(=O)c2cc(F)c(N3CCNCC3)cc21 [NORFLOXACIN],2.61
6,O=C(N/N=C/c1ccccc1O)c1ccncc1 [SALINAZID],1.98

# System: not listed separately
# Experiment: Cytotoxicity against Chlorocebus aethiops (African green monkey) Vero cells assessed as alteration in cell morphology
# Format: cell-based
# Settings: chlorocebus sabaeus
row,Structure (SMILES),MCC [µg/mL]
1,CSc1ccc(/C=N/N(C(=O)c2ccccc2)C(=O)c2ccncc2)cc1,≥ 100
2,O=C(N/N=C/c1c(O)ccc2ccccc12)c1ccncc1,≥ 0.8
3,C/C=C/C=N/NC(=O)c1ccncc1,100

# System: Punta Toro virus
# Experiment: Antiviral activity against Punta Toro virus infected Vero cells assessed as inhibition of virus-induced cytopathicity
# Format: functional, organism-based
# Settings: not given
row,Structure (SMILES),EC50 [µg/mL]
1,CSc1ccc(/C=N/N(C(=O)c2ccccc2)C(=O)c2ccncc2)cc1,> 100
2,O=C(N/N=C/c1c(O)ccc2ccccc12)c1ccncc1,> 0.8
3,C/C=C/C=N/NC(=O)c1ccncc1,> 20

# System: Coxsackievirus B4
# Experiment: Antiviral activity against Human coxsackievirus B4 infected Vero cells assessed as inhibition of virus-induced cytopathicity
# Format: functional, organism-based
# Settings: Enterovirus B
row,Structure (SMILES),EC50 [µg/mL]
1,CSc1ccc(/C=N/N(C(=O)c2ccccc2)C(=O)c2ccncc2)cc1,9
2,O=C(N/N=C/c1c(O)ccc2ccccc12)c1ccncc1,> 0.8
3,C/C=C/C=N/NC(=O)c1ccncc1,> 20

# System: Sindbis virus
# Experiment: Antiviral activity against Sindbis virus infected Vero cells assessed as inhibition of virus-induced cytopathicity
# Format: functional, organism-based
# Settings: not given
row,Structure (SMILES),EC50 [µg/mL]
1,CSc1ccc(/C=N/N(C(=O)c2ccccc2)C(=O)c2ccncc2)cc1,> 100
2,O=C(N/N=C/c1c(O)ccc2ccccc12)c1ccncc1,> 0.8
3,C/C=C/C=N/NC(=O)c1ccncc1,> 20

# System: Mammalian orthoreovirus 1
# Experiment: Antiviral activity against Mammalian orthoreovirus 1 infected Vero cells assessed as inhibition of virus-induced cytopathicity
# Format: functional, organism-based
# Settings: Mammalian orthoreovirus 1, Vero
row,Structure (SMILES),EC50 [µg/mL]
1,CSc1ccc(/C=N/N(C(=O)c2ccccc2)C(=O)c2ccncc2)cc1,> 100
2,O=C(N/N=C/c1c(O)ccc2ccccc12)c1ccncc1,> 0.8
3,C/C=C/C=N/NC(=O)c1ccncc1,> 20

# System: Human respirovirus 3
# Experiment: Antiviral activity against Human parainfluenza virus 3 infected Vero cells assessed as inhibition of virus-induced cytopathicity
# Format: functional, organism-based
# Settings: Human respirovirus 3, Vero
row,Structure (SMILES),EC50 [µg/mL]
1,CSc1ccc(/C=N/N(C(=O)c2ccccc2)C(=O)c2ccncc2)cc1,> 100
2,O=C(N/N=C/c1c(O)ccc2ccccc12)c1ccncc1,> 0.8
3,C/C=C/C=N/NC(=O)c1ccncc1,> 20

# System: Respiratory syncytial virus
# Experiment: Antiviral activity against Respiratory syncytial virus infected human HeLa cells assessed as inhibition of virus-induced cytopathicity
# Format: functional, organism-based
# Settings: not given
row,Structure (SMILES),EC50 [µg/mL]
1,CSc1ccc(/C=N/N(C(=O)c2ccccc2)C(=O)c2ccncc2)cc1,> 100
2,O=C(N/N=C/c1c(O)ccc2ccccc12)c1ccncc1,> 0.04
3,C/C=C/C=N/NC(=O)c1ccncc1,> 20

# System: Coxsackievirus B4
# Experiment: Antiviral activity against Human coxsackievirus B4 infected human HeLa cells assessed as inhibition of virus-induced cytopathicity
# Format: functional, organism-based
# Settings: Enterovirus B
row,Structure (SMILES),EC50 [µg/mL]
1,CSc1ccc(/C=N/N(C(=O)c2ccccc2)C(=O)c2ccncc2)cc1,> 100
2,O=C(N/N=C/c1c(O)ccc2ccccc12)c1ccncc1,> 0.04
3,C/C=C/C=N/NC(=O)c1ccncc1,> 20

# System: Vesicular stomatitis virus
# Experiment: Antiviral activity against Vesicular stomatitis virus infected human HeLa cells assessed as inhibition of virus-induced cytopathicity
# Format: functional, organism-based
# Settings: not given
row,Structure (SMILES),EC50 [µg/mL]
1,CSc1ccc(/C=N/N(C(=O)c2ccccc2)C(=O)c2ccncc2)cc1,> 100
2,O=C(N/N=C/c1c(O)ccc2ccccc12)c1ccncc1,> 0.04
3,C/C=C/C=N/NC(=O)c1ccncc1,> 20

# System: not listed separately
# Experiment: Cytotoxicity against Homo sapiens (human) HeLa cells
# Format: cell-based
# Settings: not given
row,Structure (SMILES),MCC [µg/mL]
1,CSc1ccc(/C=N/N(C(=O)c2ccccc2)C(=O)c2ccncc2)cc1,> 100
2,O=C(N/N=C/c1c(O)ccc2ccccc12)c1ccncc1,0.2
3,C/C=C/C=N/NC(=O)c1ccncc1,100

# System: not listed separately
# Experiment: Cytotoxicity against Homo sapiens (human) HEL cells
# Format: cell-based
# Settings: not given
row,Structure (SMILES),MCC [µg/mL]
1,CSc1ccc(/C=N/N(C(=O)c2ccccc2)C(=O)c2ccncc2)cc1,> 100
2,O=C(N/N=C/c1c(O)ccc2ccccc12)c1ccncc1,≥ 20
3,C/C=C/C=N/NC(=O)c1ccncc1,100

# System: Human alphaherpesvirus 1
# Experiment: Antiviral activity against TK(-) aciclovir-resistant Human herpesvirus 1 strain KOS infected in human HEL cells assessed as inhibition of virus-induced cytopathicity
# Format: functional, organism-based
# Settings: Human alphaherpesvirus 1, KOS
row,Structure (SMILES),EC50 [µg/mL]
1,CSc1ccc(/C=N/N(C(=O)c2ccccc2)C(=O)c2ccncc2)cc1,> 100
2,O=C(N/N=C/c1c(O)ccc2ccccc12)c1ccncc1,0.4
3,C/C=C/C=N/NC(=O)c1ccncc1,> 20

# System: Vaccinia virus
# Experiment: Antiviral activity against Vaccinia virus infected human HEL cells assessed as inhibition of virus-induced cytopathicity
# Format: functional, organism-based
# Settings: Orthopoxvirus vaccinia
row,Structure (SMILES),EC50 [µg/mL]
1,CSc1ccc(/C=N/N(C(=O)c2ccccc2)C(=O)c2ccncc2)cc1,> 100
2,O=C(N/N=C/c1c(O)ccc2ccccc12)c1ccncc1,0.14
3,C/C=C/C=N/NC(=O)c1ccncc1,> 20

# System: Human alphaherpesvirus 2
# Experiment: Antiviral activity against Human herpesvirus 2 strain G infected human HEL cells assessed as inhibition of virus-induced cytopathicity
# Format: functional, organism-based
# Settings: Human alphaherpesvirus 2, strain G
row,Structure (SMILES),EC50 [µg/mL]
1,CSc1ccc(/C=N/N(C(=O)c2ccccc2)C(=O)c2ccncc2)cc1,> 100
2,O=C(N/N=C/c1c(O)ccc2ccccc12)c1ccncc1,0.4
3,C/C=C/C=N/NC(=O)c1ccncc1,> 20

# System: Human alphaherpesvirus 1
# Experiment: Antiviral activity against Human herpesvirus 1 strain KOS infected in human HEL cells assessed as inhibition of virus-induced cytopathicity
# Format: functional, organism-based
# Settings: Human alphaherpesvirus 1, KOS
row,Structure (SMILES),EC50 [µg/mL]
1,CSc1ccc(/C=N/N(C(=O)c2ccccc2)C(=O)c2ccncc2)cc1,> 100
2,O=C(N/N=C/c1c(O)ccc2ccccc12)c1ccncc1,0.06
3,C/C=C/C=N/NC(=O)c1ccncc1,> 20

# System: not listed separately
# Experiment: Cytotoxicity against Homo sapiens (human) MT4 cells
# Format: cell-based
# Settings: not given
row,Structure (SMILES),CC50 [µg/mL]
1,CSc1ccc(/C=N/N(C(=O)c2ccccc2)C(=O)c2ccncc2)cc1,69
2,O=C(N/N=C/c1c(O)ccc2ccccc12)c1ccncc1,0.1
3,C/C=C/C=N/NC(=O)c1ccncc1,11
4,Cc1ccnc2c1NC(=O)c1cccnc1N2C1CC1 [NEVIRAPINE],> 4
5,O=C(N/N=C/c1ccccc1O)c1ccncc1 [SALINAZID],2.52
6,Cc1cn([C@H]2C[C@H](N=[N+]=[N-])[C@@H](CO)O2)c(=O)[nH]c1=O [ZIDOVUDINE],> 25

# System: Human immunodeficiency virus 2
# Experiment: Antiviral activity against Human immunodeficiency virus type 2 (ISOLATE ROD) infected human MT4 cells assessed as inhibition of virus-induced cytopathicity
# Format: functional, organism-based
# Settings: Human immunodeficiency virus 2, ISOLATE ROD
row,Structure (SMILES),EC50 [µg/mL]
1,CSc1ccc(/C=N/N(C(=O)c2ccccc2)C(=O)c2ccncc2)cc1,> 69
2,O=C(N/N=C/c1c(O)ccc2ccccc12)c1ccncc1,> 0.1
3,C/C=C/C=N/NC(=O)c1ccncc1,> 11
4,Cc1ccnc2c1NC(=O)c1cccnc1N2C1CC1 [NEVIRAPINE],> 4
5,O=C(N/N=C/c1ccccc1O)c1ccncc1 [SALINAZID],> 2.52

# System: Human immunodeficiency virus 1
# Experiment: Antiviral activity against Human immunodeficiency virus 1 IIIB infected human MT4 cells assessed as inhibition of virus-induced cytopathicity
# Format: functional, organism-based
# Settings: not given
row,Structure (SMILES),EC50 [µg/mL]
1,CSc1ccc(/C=N/N(C(=O)c2ccccc2)C(=O)c2ccncc2)cc1,> 69
2,O=C(N/N=C/c1c(O)ccc2ccccc12)c1ccncc1,> 0.1
3,C/C=C/C=N/NC(=O)c1ccncc1,> 11
4,O=C(N/N=C/c1ccccc1O)c1ccncc1 [SALINAZID],> 2.52
